Article PMC11551755, “Structure-based discovery of first inhibitors targeting the helicase activity of human PIF1” (Nucleic Acids Research, 2024)

Assays:
[1] = molecular target: T1, hPIF1HD V258L (Homo sapiens, UniProt Q9H611, V258L); assay: ssDNA d(T)55 binding assay (EMSA), hPIF1HD V258L variant; settings: 0.25 nM d(T)55, 2 nM protein, 5 mM AMP-PNP, 0.0078–2 mM compound; read-out: IC50 for inhibition of ssDNA binding, V258L
T1 construct: The human PIF1 helicase domain and mutants (hPIF1HD, residues 206–620); hexa-histidine tag (N, cleaved yes); made in house; host or cells: ArcticExpress BL21(DE3) E. coli (Agilent Technologies)
T1 sequence (Q9H611 206-620 V258L): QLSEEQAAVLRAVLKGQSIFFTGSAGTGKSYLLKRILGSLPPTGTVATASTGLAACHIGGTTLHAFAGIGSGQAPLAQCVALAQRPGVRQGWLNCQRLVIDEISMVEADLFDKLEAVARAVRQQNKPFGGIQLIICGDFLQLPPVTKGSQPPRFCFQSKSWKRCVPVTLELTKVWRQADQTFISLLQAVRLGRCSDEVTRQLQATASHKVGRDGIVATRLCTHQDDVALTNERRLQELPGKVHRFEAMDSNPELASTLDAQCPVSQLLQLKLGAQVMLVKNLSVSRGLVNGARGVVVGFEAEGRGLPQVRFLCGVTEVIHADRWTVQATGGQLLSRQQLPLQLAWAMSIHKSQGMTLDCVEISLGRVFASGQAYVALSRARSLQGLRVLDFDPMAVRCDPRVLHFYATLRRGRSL
Protocol: DNA binding of hPIF1HD was assayed using a ^32P-5′ end-labelled oligo d(T)55 substrate (0.25 nM), under the same buffer conditions described for helicase assays, but with AMP-PNP instead of ATP. Reaction products were resolved on 5% poly-acrylamide gels (29:1 acrylamide:bis-acrylamide) using 0.25× TBE running buffer ([19],[28]). Gels were processed and reaction products quantified by phosphorimaging and IC50 values determined as described above.
In hPIF1HD/AMP-PNP/1 there are no direct hydrogen bonds between amino acid side chains and 1, however, Val 258 from domain 1A is making van der Waals interaction (<3.8 Å) with the amide group at one end of the molecule (Figure 1). From the structural data, we reasoned that substitution of the Val 258 with alanine (V258A) would increase the size of the binding pocket and its accessibility to ligand, while substitution with leucine (V258L) would decrease pocket size and possibly instigate a clash with Lys 556, disrupting interactions with compound 1 or derivatives. Accordingly, we purified hPIF1HD V258A and V258L variant forms and analysed ssDNA d(T)55 binding in the presence of SMIs, using EMSA as above.
Supplementary Figure 12. hPIF1HD variants V258A and V258L ssDNA binding IC50 determination by EMSA with selected SMIs. All binding reactions were assembled under helicase reaction conditions but with 0.25 nM radiolabelled oligo d(T)55, and 5 mM AMP-PNP. (A) DNA binding activity of wild type and mutant proteins was assessed by EMSA without inhibitors. […] 1D: Wild type (WT), V258A and V258L, not determined. 2: WT, 224 ± […]; V258A, 103 ± 31 µM; V258L, 304 ± 88 µM. 5: WT, 198 ± 54 µM; V258A, 79.2 ± 27 µM; V258L, 414 ± 45 µM. 6: WT, 722 ± 194 µM; V258A, 295 ± 116 µM; V258L, 1010 ± 282 µM. 10: WT, 224 ±59 µM; V258A, 152 ± 42 µM; V258L, 378 ± 99 µM. 11: WT, 284 ± 110 µM; V258A, 151 ± 51 µM; V258L, 551 ± 215 µM.

[2] = molecular target: T2, FLhPIF1 (Homo sapiens, UniProt Q9H611); assay: DNA-dependent ATPase assay; assay type: biochemical; settings: 1 mM compound, 25 nM FLhPIF1, 250 nM d(T)55, 10 min at 37°C
T2 construct: Full length human PIF1 (FLhPIF1) was expressed and purified as a His-SUMO fusion; His-SUMO (cleaved yes); made in house; 'following similar protocols' to hPIF1HD (ArcticExpress BL21(DE3) E. coli)
T2 sequence (Q9H611 1-641): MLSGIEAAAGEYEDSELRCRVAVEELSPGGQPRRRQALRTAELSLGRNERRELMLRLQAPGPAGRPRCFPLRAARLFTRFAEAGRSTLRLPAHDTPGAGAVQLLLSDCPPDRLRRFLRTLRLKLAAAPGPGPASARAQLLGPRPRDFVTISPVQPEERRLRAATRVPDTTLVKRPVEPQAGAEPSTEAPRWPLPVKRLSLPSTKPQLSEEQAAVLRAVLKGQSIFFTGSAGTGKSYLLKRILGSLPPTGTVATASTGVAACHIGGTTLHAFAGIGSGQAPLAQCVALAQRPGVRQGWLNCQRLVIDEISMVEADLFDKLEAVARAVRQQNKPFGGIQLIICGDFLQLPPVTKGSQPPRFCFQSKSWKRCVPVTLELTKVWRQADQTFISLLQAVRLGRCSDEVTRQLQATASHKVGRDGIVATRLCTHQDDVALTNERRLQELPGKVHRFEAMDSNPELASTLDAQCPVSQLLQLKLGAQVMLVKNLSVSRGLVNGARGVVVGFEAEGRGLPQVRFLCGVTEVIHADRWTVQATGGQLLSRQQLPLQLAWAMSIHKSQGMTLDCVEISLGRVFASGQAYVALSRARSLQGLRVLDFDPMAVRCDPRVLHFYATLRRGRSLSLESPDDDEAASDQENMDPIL
Protocol: ATP hydrolysis was measured under helicase reaction conditions with 25 nM FLhPIF1 and 250 nM oligo d(T)55 and 0.0125 μM [γ-^32P]ATP (6000 Ci/mmol). Released phosphate was quantified using the charcoal binding assay of Iggo and Lane ([45]) after 10 min at 37°C.
Supplementary Figure 11. ATPase activity determined with and without inhibitors. ATPase assays, 25 nM FLhPIF1, 250 nM d(T)55 ssDNA, were performed for 10 minutes at 37 °C under helicase reaction conditions, with and without 1 mM compound (n = 3). Compound 2 was not included in the analysis due to lack of available material. […] The data are broadly in agreement with the results of ssDNA binding EMSA except compound 6 (see discussion).

Row | SMILES | IC50 [1] | inhibition of DNA-dependent ATPase [2]
1 | CC(=O)Nc1ccc(-c2csc(N)n2)cc1-c1ccc(C)cc1 [Compound 10] | 378 ± 99 µM | 
2 | CC(=O)c1ccc(-c2csc(N)n2)cc1 [Compound 2] | 304 ± 88 µM | 
3 | CC(=O)Nc1ccc(-c2csc(N)n2)cc1C1=CCNCC1 [Compound 11] | 551 ± 215 µM | 
4 | N#Cc1ccc(-c2csc(N)n2)cc1 [Compound 5] | 414 ± 45 µM | 
5 | Nc1nc(-c2ccc(C(=O)c3ccccc3)cc2)cs1 [Compound 6] | 1010 ± 282 µM | effective inhibitor of DNA-dependent ATPase
